Columns and labels:
[1] = Relative volatility by thermo-gravimetric analysis; format: physicochemical; conditions: TGA at 120° C.
Protocol: Using a TA Instruments (New Castle, Del.) Model TGA 2050 thermo-gravimetric analyzer, a typical thermo-gravimetric analysis (TGA) is carried out by (a) weighing out 10-20 mg of the sample, (b) loading it into an aluminum or platinum holding pan, and (c) measuring and recording the mass loss of the sample over time at a constant temperature of 120° C. The volatility of the sample is obtained as the rate of mass loss per unit time when the loss rate becomes constant (reaches steady state).
Relative volatility is defined as the ratio of the volatility of a given 2,4-D or triclopyr sample over that of the corresponding 2,4-D DMA or triclopyr triethylamine salt that was arbitrarily set at 100.

Eye irritation testing = format: in vivo, New Zealand albino rabbit; conditions: 456 gae/L, 21 days after application, most sensitive animal; for Eye irritation score, Iris: maximum 2; for Eye irritation score, Cornea: maximum 4; for Eye irritation score, Conjunctivae: maximum 10
Protocol: Eye irritation testing was done according to guideline testing requirements specified in: (1) OECD Guideline for the Testing of Chemicals, Procedure 405 (2002), (2) U.S. EPA Health Effects Test Guidelines, OPPTS 870.2400 (1998), (3) JMAFF 12-Nouan-1847 (2000) and (4) Official Journal of the European Communities, Methods for the Determination of Toxicity, Part B.5 (Eye Irritation), Directive 2004/73/ED, 29 Apr. 2004.
Test material formulations were administered to New Zealand albino rabbit (1 to 3 animals per formulation) to determine the potential to produce eye irritation. The material was applied in a single dose to the conjuctival sac of one eye of each animal. The other eye remained untreated and served as a control. Irritation of the cornea, iris and conjunctivae were evaluated 21 days after application of the test material.
The results are reported as irritation present in the cornea, iris and conjunctivae in the most sensitive animal 21 days after application. Testing was conducted with the following concentrates: (1) 2,4-D PEI complex (Lupasol® G20 complex, 456 grams acid equivalent per liter (gae/l)), (2) 2,4-D DMA (dimethyl ammonium salt, 456 gae/l), (3) 2,4-D DMEA (dimethylethyl ammonium salt, 456 gae/l), (4) 2,4-D IPA (isopropyl ammonium salt, 456 gae/l), and (5) 2,4-D TIPA (triisopropanol ammonium salt, 456 gae/l).

[2] = ratio to 2,4-D DMA salt set at 100
[3] = ratio to triclopyr triethylamine salt set at 100

Q: With `CNC.O=C(O)COc1ccc(Cl)cc1Cl` [2,4-D DMA salt, 2,4-D dimethylamine (DMA) salt] as the compound, how does the Relative volatility [1, 2] read?
A: Its Relative volatility is 100.

Q: And the “Eye irritation score, Iris” value (Eye irritation testing)?
A: The value was 1.

Q: What about the “Eye irritation score, Cornea” value (Eye irritation testing) of the same compound?
A: The value was 3.

Q: What about the “Eye irritation score, Conjunctivae” value (Eye irritation testing) of the same compound?
A: The value was 3.

Q: Which results are given for `CC(C)N.O=C(O)COc1ccc(Cl)cc1Cl` [2,4-D IPA]?
A: Eye irritation score, Iris (Eye irritation testing): 0; Eye irritation score, Cornea (Eye irritation testing): 4; Eye irritation score, Conjunctivae (Eye irritation testing): 6

Q: Which “Eye irritation score, Iris” value (Eye irritation testing) does the source give for `CC(O)CN(CC(C)O)CC(C)O.O=C(O)COc1ccc(Cl)cc1Cl` (stereo not drawn) [2,4-D TIPA] here?
A: The value was 0.

Q: And the “Eye irritation score, Cornea” value (Eye irritation testing)?
A: Its value is 3.

Q: And the “Eye irritation score, Conjunctivae” value (Eye irritation testing)?
A: The value was 1.

Q: With `O=C(O)COc1ccc(Cl)cc1Cl` [2,4-D acid tech, 2,4-dichlorophenoxyacetic acid] as the compound, how does the Relative volatility [1, 2] read?
A: The Relative volatility was 249.

Q: Which Relative volatility [1, 2] does the source give for `CCCCC(CC)COC(=O)COc1ccc(Cl)cc1Cl` (stereo not drawn) [2,4-D ethylhexyl ester] here?
A: The Relative volatility was 1201.

Q: Which Relative volatility [1, 3] does the source give for `O=C(O)COc1nc(Cl)c(Cl)cc1Cl` [triclopyr acid] here?
A: The Relative volatility was 135.

Q: Which Relative volatility [1, 3] does the source give for `CCCCOCCOC(=O)COc1nc(Cl)c(Cl)cc1Cl` [triclopyr butoxyethyl ester] here?
A: The Relative volatility was 302.

Q: With `CCN(CC)CC.O=C(O)COc1nc(Cl)c(Cl)cc1Cl` [triclopyr triethylamine salt] as the compound, how does the Relative volatility [1, 3] read?
A: The Relative volatility was 100.
